The text below walks through data of ChEMBL document CHEMBL5226343, “Structure-Activity Relationship of USP5 Inhibitors” (J Med Chem, 2021).

Test [1] deals with T1, Protein deacetylase HDAC6 (Homo sapiens, UniProt Q9UBN7).
T1 sequence (Q9UBN7 whole entry): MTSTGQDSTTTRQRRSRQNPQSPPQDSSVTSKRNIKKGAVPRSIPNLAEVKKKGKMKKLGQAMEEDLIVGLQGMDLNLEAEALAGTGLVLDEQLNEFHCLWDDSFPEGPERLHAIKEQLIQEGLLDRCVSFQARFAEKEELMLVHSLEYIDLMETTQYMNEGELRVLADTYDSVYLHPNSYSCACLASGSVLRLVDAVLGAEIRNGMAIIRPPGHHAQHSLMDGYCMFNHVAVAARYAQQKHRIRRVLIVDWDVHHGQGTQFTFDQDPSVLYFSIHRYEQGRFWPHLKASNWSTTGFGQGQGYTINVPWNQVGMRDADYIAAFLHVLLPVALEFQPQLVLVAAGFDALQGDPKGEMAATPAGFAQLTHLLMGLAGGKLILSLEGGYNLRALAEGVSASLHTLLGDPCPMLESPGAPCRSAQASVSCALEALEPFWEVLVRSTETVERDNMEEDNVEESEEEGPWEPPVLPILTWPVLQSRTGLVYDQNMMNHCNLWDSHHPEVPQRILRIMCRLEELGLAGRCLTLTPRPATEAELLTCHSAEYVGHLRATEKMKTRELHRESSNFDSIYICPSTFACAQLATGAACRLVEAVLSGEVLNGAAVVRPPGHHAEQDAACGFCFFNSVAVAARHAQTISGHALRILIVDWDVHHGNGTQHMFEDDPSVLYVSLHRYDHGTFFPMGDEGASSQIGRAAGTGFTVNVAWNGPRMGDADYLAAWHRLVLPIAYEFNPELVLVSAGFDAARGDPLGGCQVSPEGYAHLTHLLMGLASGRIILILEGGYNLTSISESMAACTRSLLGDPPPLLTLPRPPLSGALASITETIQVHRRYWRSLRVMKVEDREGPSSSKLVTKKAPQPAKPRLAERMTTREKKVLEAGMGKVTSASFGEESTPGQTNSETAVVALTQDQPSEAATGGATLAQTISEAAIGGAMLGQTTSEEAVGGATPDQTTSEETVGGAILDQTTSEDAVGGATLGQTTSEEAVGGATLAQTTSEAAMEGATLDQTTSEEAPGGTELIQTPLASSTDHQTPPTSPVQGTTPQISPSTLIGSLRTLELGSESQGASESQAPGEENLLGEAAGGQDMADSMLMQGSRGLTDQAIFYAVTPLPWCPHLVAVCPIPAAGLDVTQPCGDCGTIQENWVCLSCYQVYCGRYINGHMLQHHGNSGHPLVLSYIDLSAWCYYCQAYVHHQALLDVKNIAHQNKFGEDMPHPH

Test [2] concerns the target T2, Ubiquitin carboxyl-terminal hydrolase 5 (Homo sapiens, UniProt P45974).
T2 sequence (P45974 whole entry): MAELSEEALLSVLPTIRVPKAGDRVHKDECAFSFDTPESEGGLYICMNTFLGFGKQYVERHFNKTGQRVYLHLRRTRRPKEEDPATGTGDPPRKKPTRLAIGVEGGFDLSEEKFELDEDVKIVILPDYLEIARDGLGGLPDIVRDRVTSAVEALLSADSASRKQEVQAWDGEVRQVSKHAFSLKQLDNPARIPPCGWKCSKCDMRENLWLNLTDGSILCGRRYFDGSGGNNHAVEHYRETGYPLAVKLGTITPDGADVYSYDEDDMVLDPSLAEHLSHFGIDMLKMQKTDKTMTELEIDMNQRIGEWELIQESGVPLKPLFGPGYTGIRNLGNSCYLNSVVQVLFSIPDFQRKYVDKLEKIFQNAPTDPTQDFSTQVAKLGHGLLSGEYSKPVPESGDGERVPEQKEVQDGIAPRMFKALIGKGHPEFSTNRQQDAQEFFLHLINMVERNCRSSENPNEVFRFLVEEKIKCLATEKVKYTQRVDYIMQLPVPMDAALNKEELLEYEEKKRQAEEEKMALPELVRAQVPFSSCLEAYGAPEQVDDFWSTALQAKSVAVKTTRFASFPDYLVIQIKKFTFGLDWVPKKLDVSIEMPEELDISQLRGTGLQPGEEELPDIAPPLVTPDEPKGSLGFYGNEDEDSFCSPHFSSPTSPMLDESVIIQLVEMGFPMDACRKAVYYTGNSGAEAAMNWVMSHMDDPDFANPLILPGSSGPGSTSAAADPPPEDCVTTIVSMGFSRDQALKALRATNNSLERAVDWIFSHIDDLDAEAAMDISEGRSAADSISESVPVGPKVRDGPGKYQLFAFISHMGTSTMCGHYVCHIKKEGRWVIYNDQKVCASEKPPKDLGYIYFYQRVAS
Description: Inhibition of USP5 (unknown origin).

In test [3] the target is Ubiquitin carboxyl-terminal hydrolase 7 (Homo sapiens, UniProt Q93009). Description: Inhibition of USP7 (unknown origin).
Ubiquitin carboxyl-terminal hydrolase 7, sequence (Q93009 whole entry): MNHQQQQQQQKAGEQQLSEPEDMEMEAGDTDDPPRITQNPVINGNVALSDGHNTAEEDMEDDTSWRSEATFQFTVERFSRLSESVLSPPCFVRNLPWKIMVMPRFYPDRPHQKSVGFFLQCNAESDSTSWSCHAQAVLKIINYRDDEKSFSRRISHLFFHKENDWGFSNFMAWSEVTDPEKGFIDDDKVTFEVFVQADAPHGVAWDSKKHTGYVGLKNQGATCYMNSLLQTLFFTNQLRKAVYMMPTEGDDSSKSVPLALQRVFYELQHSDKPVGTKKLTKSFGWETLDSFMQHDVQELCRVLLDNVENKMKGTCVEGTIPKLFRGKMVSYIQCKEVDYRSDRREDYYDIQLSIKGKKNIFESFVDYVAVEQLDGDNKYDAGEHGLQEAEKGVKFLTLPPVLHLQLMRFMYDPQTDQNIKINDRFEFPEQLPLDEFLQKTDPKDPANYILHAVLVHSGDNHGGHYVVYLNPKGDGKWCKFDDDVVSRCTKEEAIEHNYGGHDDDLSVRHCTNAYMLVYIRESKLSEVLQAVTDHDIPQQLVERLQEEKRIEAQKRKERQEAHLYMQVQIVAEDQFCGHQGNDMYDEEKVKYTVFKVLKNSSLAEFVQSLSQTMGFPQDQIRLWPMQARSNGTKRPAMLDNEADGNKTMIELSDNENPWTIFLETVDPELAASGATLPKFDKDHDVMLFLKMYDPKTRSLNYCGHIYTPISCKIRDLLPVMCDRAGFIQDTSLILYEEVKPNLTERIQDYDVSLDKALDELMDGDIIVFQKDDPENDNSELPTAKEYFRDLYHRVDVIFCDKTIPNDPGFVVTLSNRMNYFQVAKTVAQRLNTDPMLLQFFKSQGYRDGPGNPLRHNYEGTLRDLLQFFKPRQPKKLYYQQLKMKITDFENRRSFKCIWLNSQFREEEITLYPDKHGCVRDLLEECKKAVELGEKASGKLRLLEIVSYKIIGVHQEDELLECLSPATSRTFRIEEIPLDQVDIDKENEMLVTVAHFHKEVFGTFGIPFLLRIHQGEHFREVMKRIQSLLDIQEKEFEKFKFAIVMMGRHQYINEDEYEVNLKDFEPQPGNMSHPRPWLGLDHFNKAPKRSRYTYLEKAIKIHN
In test [4] the target is T3, Ubiquitin carboxyl-terminal hydrolase 8 (Homo sapiens, UniProt P40818).
T3 sequence (P40818 whole entry): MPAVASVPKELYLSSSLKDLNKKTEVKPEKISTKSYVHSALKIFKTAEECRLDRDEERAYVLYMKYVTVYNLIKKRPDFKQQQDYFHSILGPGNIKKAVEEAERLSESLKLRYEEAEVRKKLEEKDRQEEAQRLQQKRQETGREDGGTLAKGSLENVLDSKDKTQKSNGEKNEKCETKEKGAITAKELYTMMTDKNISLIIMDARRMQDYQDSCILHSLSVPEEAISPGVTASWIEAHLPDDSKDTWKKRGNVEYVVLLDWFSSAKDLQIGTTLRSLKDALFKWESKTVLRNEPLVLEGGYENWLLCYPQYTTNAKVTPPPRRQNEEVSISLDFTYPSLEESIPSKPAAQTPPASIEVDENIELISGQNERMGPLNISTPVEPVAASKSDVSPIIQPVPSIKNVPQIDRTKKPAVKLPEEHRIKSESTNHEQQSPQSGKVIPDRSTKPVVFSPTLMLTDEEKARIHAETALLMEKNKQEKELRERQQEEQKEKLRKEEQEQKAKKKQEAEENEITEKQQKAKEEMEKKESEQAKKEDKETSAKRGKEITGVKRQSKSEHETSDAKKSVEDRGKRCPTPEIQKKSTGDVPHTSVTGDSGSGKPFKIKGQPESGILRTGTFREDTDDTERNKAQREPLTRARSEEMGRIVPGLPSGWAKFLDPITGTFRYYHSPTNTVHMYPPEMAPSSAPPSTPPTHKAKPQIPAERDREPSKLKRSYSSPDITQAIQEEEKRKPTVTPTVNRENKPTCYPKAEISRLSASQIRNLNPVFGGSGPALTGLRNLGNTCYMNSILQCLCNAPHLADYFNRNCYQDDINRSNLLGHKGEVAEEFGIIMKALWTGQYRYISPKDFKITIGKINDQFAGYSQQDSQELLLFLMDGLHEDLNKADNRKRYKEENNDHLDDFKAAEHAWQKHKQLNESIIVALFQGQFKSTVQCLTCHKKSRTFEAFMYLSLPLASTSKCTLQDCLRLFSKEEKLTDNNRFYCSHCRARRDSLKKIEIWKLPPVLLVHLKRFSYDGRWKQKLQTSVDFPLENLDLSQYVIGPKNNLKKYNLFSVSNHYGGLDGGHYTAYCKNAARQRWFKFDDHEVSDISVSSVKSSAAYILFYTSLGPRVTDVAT
As to the kind of experiment: Inhibition of USP8 (unknown origin).

Test [5] deals with T4, Ubiquitin carboxyl-terminal hydrolase 4 (Homo sapiens, UniProt Q13107).
T4 sequence (Q13107 whole entry): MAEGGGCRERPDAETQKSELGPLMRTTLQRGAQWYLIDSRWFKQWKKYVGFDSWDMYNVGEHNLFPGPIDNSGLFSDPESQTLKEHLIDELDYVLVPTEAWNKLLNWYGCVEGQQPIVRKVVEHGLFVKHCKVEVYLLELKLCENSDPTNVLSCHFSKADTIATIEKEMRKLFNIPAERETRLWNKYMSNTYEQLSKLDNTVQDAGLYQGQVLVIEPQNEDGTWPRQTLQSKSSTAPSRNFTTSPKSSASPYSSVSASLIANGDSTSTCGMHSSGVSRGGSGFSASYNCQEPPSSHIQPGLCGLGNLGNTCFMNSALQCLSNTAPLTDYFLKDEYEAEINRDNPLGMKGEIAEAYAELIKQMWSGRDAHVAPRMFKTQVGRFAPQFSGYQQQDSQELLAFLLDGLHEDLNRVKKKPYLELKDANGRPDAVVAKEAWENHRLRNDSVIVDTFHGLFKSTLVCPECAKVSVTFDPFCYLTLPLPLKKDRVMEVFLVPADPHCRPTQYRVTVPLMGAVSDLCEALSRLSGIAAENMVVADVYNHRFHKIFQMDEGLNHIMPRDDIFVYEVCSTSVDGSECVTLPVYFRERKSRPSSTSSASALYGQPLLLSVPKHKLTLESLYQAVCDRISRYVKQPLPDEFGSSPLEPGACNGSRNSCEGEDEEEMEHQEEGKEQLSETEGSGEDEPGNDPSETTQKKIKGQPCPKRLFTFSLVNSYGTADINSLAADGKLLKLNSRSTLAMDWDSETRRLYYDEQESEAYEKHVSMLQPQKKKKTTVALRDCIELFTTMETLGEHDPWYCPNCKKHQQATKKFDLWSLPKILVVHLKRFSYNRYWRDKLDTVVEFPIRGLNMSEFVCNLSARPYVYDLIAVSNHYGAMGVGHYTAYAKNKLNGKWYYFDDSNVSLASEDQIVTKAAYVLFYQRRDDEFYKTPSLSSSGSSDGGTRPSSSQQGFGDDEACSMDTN
Description: Inhibition of USP4 (unknown origin).

In test [6] the target is T5, Ubiquitin carboxyl-terminal hydrolase 2 (Homo sapiens, UniProt O75604).
T5 sequence (O75604 whole entry): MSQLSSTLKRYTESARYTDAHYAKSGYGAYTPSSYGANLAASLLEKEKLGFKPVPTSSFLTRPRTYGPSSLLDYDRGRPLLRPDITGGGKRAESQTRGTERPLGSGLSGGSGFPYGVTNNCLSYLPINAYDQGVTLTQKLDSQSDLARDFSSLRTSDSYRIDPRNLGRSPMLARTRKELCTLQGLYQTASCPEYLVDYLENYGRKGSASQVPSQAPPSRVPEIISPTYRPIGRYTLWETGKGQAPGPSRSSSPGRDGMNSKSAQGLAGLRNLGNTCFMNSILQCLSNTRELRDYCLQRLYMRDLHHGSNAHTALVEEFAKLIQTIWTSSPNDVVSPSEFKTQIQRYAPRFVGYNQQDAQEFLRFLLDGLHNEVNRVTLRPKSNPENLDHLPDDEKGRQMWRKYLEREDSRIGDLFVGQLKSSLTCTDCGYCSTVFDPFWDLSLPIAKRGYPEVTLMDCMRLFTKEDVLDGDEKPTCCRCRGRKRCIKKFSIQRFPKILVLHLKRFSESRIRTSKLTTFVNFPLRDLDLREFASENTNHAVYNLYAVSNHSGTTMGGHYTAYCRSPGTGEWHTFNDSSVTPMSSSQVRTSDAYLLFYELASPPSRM
As to the kind of experiment: Inhibition of USP2 (unknown origin).

The target in test [7] is Ubiquitin carboxyl-terminal hydrolase isozyme L1 (Homo sapiens) (UniProt P09936). As to the kind of experiment: Inhibition of UCH-L1 (unknown origin) at 2.5 uM.
Ubiquitin carboxyl-terminal hydrolase isozyme L1 (Homo sapiens), sequence (P09936 whole entry, looked up): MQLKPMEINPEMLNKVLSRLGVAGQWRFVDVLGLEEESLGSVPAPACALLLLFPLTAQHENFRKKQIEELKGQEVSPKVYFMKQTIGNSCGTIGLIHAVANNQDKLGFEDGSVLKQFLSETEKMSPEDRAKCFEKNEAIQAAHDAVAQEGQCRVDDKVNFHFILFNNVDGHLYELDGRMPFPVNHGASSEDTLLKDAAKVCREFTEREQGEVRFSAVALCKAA
Test [8] concerns the target Ubiquitin carboxyl-terminal hydrolase 9X (Homo sapiens) (UniProt Q93008). As to the kind of experiment: Inhibition of USP9X (unknown origin) at 2.5 uM.
Test [9] addresses T6, Ubiquitin carboxyl-terminal hydrolase 5 (Homo sapiens) (UniProt P45974).
T6 sequence (whole entry): T2 sequence (P45974 whole entry)
Description: Inhibition of USP5 (unknown origin) at 2.5 uM.

SMILES strings stand for the structures. pEC50, pKd: −log10 of the molar value. Where only a bound is given, the exact number is not on record here.

Ubiquitin carboxyl-terminal hydrolase 9X (Homo sapiens), sequence (Q93008 whole entry): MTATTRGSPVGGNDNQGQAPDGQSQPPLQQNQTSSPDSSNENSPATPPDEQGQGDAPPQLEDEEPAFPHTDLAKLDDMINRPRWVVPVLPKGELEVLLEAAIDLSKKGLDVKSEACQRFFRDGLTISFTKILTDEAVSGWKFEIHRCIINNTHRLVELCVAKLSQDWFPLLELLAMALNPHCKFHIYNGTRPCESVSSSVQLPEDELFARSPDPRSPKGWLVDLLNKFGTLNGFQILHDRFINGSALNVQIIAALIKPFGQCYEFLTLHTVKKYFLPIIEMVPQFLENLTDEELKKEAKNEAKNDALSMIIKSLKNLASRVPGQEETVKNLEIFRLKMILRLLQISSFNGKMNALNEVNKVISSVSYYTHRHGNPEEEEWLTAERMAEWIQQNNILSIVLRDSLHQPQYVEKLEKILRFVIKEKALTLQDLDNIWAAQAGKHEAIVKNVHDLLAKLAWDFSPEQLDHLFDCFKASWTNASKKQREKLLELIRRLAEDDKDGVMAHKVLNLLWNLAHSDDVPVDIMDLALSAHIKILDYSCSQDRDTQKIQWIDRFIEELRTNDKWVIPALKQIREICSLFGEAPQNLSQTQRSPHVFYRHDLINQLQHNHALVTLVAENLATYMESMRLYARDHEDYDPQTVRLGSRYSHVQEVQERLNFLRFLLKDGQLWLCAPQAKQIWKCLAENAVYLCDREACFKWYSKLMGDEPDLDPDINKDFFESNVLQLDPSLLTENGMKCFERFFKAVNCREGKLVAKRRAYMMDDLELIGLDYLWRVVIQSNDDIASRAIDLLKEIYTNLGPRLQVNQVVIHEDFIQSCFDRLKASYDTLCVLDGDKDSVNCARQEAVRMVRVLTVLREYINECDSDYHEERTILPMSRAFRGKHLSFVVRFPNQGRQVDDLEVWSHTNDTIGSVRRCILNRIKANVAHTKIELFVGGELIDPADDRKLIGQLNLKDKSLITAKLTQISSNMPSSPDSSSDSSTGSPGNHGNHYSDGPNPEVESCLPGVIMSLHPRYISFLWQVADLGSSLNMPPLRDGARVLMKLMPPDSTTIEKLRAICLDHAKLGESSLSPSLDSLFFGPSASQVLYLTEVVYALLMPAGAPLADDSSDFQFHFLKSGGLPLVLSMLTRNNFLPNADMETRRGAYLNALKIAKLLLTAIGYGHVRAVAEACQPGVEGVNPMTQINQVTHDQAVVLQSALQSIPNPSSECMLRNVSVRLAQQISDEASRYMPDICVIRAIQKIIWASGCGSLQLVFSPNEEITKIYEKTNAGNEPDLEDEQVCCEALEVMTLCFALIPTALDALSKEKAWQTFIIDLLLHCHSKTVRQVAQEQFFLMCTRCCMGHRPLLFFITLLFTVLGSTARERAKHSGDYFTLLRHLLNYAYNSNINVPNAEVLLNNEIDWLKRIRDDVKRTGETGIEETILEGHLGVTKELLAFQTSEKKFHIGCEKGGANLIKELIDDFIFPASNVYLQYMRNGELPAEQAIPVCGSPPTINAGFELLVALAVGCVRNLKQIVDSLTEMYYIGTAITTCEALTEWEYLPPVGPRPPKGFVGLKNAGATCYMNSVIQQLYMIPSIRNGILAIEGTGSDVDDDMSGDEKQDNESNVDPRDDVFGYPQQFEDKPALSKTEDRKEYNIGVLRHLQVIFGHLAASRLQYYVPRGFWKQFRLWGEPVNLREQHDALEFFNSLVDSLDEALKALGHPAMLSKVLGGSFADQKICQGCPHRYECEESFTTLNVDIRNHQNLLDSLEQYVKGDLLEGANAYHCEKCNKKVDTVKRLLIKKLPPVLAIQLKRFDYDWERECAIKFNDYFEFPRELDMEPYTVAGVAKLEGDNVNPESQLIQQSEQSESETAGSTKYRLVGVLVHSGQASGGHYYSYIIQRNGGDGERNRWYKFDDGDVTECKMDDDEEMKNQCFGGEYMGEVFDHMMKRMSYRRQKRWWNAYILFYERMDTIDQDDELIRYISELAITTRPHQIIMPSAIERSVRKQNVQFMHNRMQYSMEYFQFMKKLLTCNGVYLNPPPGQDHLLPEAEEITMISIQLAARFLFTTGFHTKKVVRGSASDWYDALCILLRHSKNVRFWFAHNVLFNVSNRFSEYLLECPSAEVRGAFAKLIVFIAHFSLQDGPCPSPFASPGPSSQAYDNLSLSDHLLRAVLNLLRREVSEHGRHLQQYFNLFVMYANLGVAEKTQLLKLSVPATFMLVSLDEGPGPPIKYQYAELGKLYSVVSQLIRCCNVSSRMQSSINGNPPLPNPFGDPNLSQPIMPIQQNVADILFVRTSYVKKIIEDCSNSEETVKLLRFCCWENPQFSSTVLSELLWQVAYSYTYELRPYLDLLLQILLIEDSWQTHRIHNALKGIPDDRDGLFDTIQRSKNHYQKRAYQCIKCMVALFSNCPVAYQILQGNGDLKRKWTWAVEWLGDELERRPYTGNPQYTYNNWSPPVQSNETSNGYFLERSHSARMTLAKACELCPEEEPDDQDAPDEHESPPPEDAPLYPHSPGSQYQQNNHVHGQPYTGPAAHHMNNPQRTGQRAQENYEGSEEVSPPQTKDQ

The compound `O=C(O)CNC(=O)c1ccc(S(=O)(=O)N2CCC(c3ccccc3)CC2)cc1Cl` gave a negative logarithm of the Kd (pKd) in [1] of 3.82.
In test [1], `O=C(O)CNC(=O)c1cccc(S(=O)(=O)N2CCC(c3ccccc3)CC2)c1` gave a pKd below 3.36.
In [1], `O=C(O)CNC(=O)c1ccc(S(=O)(=O)N2CCCC(c3ccccc3)CC2)cc1` (stereo unspecified) gave a pKd below 3.19.
In test [1], `Cc1cc(S(=O)(=O)N2CCC(c3ccccc3)CC2)ccc1C(=O)NCC(=O)O` showed a pKd of 3.80.
The same measure, in the same setting: to `CN1CCN(C2CCN(S(=O)(=O)c3ccc(C(=O)NCC(=O)O)cc3)CC2)CC1` belongs 3.43; to `CN(C)C1CCN(S(=O)(=O)c2ccc(C(=O)NCC(=O)O)cc2)CC1`, below 3.12; to `O=C(O)CNC(=O)c1ccc(S(=O)(=O)N2CCC(N3CCCC3)CC2)cc1`, 3.28.
For the compound `N#CSc1cc(SC#N)c(N)nc1N`, the pEC50 in test [2] was 5.07; in test [3], 5.16; in test [4] it was 5.31; in test [5] it was 5.41; in test [6], 5.14.
For `CN1CCC2(CC1)CCN(S(=O)(=O)c1ccc(C(=O)NCC(=O)O)cc1)CC2`, the pKd in test [1] is 3.39.
Still for that read-out and setting: for `O=C(O)CNC(=O)c1ccc(S(=O)(=O)N2CCC(N3CCOCC3)CC2)cc1` the value was below 3.00; for `O=C(O)CNC(=O)c1ccc(S(=O)(=O)N2CCC(c3ccccc3)C2)cc1` (stereo unspecified), below 3.00.
The same measure, in the same setting: to `O=C(O)CNC(=O)c1ccc(S(=O)(=O)N2CCc3ccccc3C2)cc1` belongs 3.54.
In turn, `O=C(O)CNC(=O)c1ccc(S(=O)(=O)N2Cc3ccccc3C2)cc1` had a pKd in test [1] below 3.32.
`O=C(O)CNC(=O)c1ccc(S(=O)(=O)N2CC(c3ccccc3)C2)cc1` gave a pKd in test [1] below 3.00.
Same read-out and setting: to `Cn1cc(S(=O)(=O)N2CCC(c3ccccc3)CC2)cc1C(=O)NCC(=O)O` belongs below 3.00; to `O=C(O)CNC(=O)c1ccc(S(=O)(=O)N2CC=C(c3ccccc3)CC2)cc1`, 3.47.
Consider `CCC[C@H](NC(=O)/C(C#N)=C/c1cccc(Br)n1)c1ccccc1`, for which the inhibition was determined as 30% in [7], 45% in test [8] and 50% in test [9].
For `O=C(O)CNC(=O)c1ccc(S(=O)(=O)N2CCN(c3ccccc3)CC2)cc1`, in test [1], the pKd is below 3.32.
In the case of `O=C(O)CNC(=O)c1ccc(S(=O)(=O)N2CCC3(CC2)OCc2ccccc23)cc1`, in [1], the pKd was 3.36.
Regarding `CN1CCC(NS(=O)(=O)c2ccc(C(=O)NCC(=O)O)cc2)CC1`, in [1], the pKd is below 3.00.
